Reference: patent US6492495B1, “PTP-S31: a novel protein tyrosine phosphatase” (Max-Planck-Gesellschaft zur Forderung der Wissenschaften …, priority 1993, dated 2002)
Where two headings read alike, the source gives them in different places. Values belong to the compound of their own block, whether it stands above or below them.

Experiments:
[1] = target: T1, GST/PTP-S31 fusion protein (S31D) (Homo sapiens, UniProt Q9UMZ3); test: PTP assay of GST/PTP-S31D fusion protein on glutathione-Sepharose beads, substrate pNP-P, effect of agents; type: biochemical; settings: 25 mM pNP-P
T1 construct: p16 encodes a fusion protein of glutathione-S-transferase and PTP-S31D (starting with the first methionine); made in house; host or cells: E. coli DH5α and SURE
T1 sequence (Q9UMZ3 with tags, fused parts or gaps): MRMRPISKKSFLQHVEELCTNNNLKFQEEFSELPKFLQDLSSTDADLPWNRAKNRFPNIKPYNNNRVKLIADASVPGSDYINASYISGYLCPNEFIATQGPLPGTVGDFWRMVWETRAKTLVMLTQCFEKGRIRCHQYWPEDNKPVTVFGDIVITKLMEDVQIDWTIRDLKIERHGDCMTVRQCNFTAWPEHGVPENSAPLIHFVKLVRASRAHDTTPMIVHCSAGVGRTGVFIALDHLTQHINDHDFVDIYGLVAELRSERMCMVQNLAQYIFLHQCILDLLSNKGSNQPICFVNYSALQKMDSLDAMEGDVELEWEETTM
Procedure: The activity of PTP-S31D towards the substrate p-nitrophenyl phosphate (pNP-P) was measured essentially as described by Tonks et al., J. Biol. Chem. 263:6731-6737 (1988)). Increasing amounts of the glutathione-Sepharose beads with GST/PTP-S31D, GST/PTP-S31C and GST, respectively, from above were incubated with 25 mM pNP-P at room temperature in a reaction mixture containing 50 mM 2-(N-morpholino) ethane sulfonic acid (MES) pH 5.5, 10 mM dithiothreitol, and 5 mM ethylenediamine tetraacetic acid (EDTA). The reaction was stopped by addition of equal volumes of 0.4 M NaOH. After centrifugation, the supernatants were transferred to microtiter plates and the absorbance at 405 nm was read with a Dynatech MR5000 reader.
The activity of the GST/PTP-S31D fusion protein towards pNP-P is measured as described in Section 10, above. The substances to be analyzed for their ability to stimulate or inhibit phosphatase activity are added to the GST/PTP-S31D fusion protein 5 minutes prior to the addition of pNP-P. A similar procedure is used for PTP-S31D expressed in 293 cells, where the PTP-S31D/293 cell lysate is used directly.
The indicated concentrations of the agents are the final concentrations in the reaction mixture after addition of the substrate, pNP-P. The phosphatase assay mixture contained 50 mM 2-(N-Morpholino)ethane sulfonic acid (MES) pH 5.5, 10 mM dithiothreitol, 25 mM pNP-P and 2 μl of the GST/PTP-S31-Sepharose suspension. When testing orthovanadate, poly(Glu/Tyr) 4:1 and poly-L-lysine, 5 mM EDTA was included in the assay mixture. The reaction was carried out at room temperature and stopped after 30 minutes by addition of equal volumes of 0.4M NaOH. After centrifugation, the supernatants were transferred to microtiter plates and the absorbance at 405 nm read with a Dynatech MR5000 plate reader. For comparison, Table I includes published data of the activity of PTPB and LAR using Raytide as a substrate (Itoh et al (J. Biol. Chem. 267: 12356-12363 (1992)).

PTPβ = PTPβ (Homo sapiens, UniProt P23467); settings: Raytide substrate, cited from earlier work
LAR = settings: Raytide substrate, cited from earlier work
[2] = system: skeletal muscle or adipocytes; settings: whole cells such as skeletal muscle or adipocytes; cited from earlier work
[3] = agent 1 mM final, MES pH 5.5, 30 min room temperature
[4] = agent 10 mM final, MES pH 5.5, 30 min room temperature
[5] = agent 0.1 mM final, MES pH 5.5, 30 min room temperature
[6] = agent 1 μg/ml final, MES pH 5.5, 5 mM EDTA, 30 min room temperature
[7] = agent 10 μg/ml final, MES pH 5.5, 5 mM EDTA, 30 min room temperature
[8] = agent 100 μg/ml final, MES pH 5.5, 5 mM EDTA, 30 min room temperature

Chain of PTPβ (P23467 1643-1997 limits assumed): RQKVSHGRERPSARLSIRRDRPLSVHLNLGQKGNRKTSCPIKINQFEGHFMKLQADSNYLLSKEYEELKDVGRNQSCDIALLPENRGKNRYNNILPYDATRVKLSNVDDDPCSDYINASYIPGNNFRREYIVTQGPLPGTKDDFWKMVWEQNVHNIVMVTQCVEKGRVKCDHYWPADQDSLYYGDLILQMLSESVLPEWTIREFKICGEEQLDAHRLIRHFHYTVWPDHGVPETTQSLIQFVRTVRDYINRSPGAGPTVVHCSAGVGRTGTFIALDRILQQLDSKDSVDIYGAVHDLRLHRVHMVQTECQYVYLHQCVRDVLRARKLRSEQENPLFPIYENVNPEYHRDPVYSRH

Compound: [Cl-].[Cl-].[Mg+2] [MgCl2]
PTP Activity (% of control) S31D [1, 3]: 123 % of control
PTP Activity (% of control) S31D [1, 4]: 140 % of control
PTP Activity (% of control) PTPβ (PTPβ; agent 1 mM): 90 % of control
PTP Activity (% of control) PTPβ (PTPβ; agent 10 mM): 141 % of control
PTP Activity (% of control) LAR (LAR; agent 1 mM): 119 % of control
PTP Activity (% of control) LAR (LAR; agent 10 mM): 56 % of control

Compound: [Cl][Mn][Cl] [MnCl2]
PTP Activity (% of control) S31D [1, 3]: 110 % of control
PTP Activity (% of control) S31D [1, 4]: 140 % of control
PTP Activity (% of control) PTPβ (PTPβ; agent 1 mM): 85 % of control
PTP Activity (% of control) PTPβ (PTPβ; agent 10 mM): 64 % of control
PTP Activity (% of control) LAR (LAR; agent 1 mM): 72 % of control
PTP Activity (% of control) LAR (LAR; agent 10 mM): 30 % of control

Compound: pervanadate
insulin response of whole cells [2]: almost full insulin response

Compound: poly-L-lysine
PTP Activity (% of control) S31D [1, 6]: 156 % of control
PTP Activity (% of control) S31D [1, 7]: 172 % of control
PTP Activity (% of control) S31D [1, 8]: 192 % of control
PTP Activity (% of control) PTPβ (PTPβ; agent 1 μg/ml): 239 % of control
PTP Activity (% of control) PTPβ (PTPβ; agent 10 μg/ml): 653 % of control
PTP Activity (% of control) PTPβ (PTPβ; agent 100 μg/ml): 125 % of control
PTP Activity (% of control) LAR (LAR; agent 1 μg/ml): 123 % of control
PTP Activity (% of control) LAR (LAR; agent 10 μg/ml): 230 % of control
PTP Activity (% of control) LAR (LAR; agent 100 μg/ml): 247 % of control

The next lines start with results.

PTP Activity (% of control) S31D [1, 5]: 64 % of control
PTP Activity (% of control) S31D [1, 3]: 23 % of control
Compound: [O]=[V]([O-])([O-])[O-] [Orthovanadate, orthovanadate]
PTP Activity (% of control) PTPβ (PTPβ; agent 0.1 mM): 33 % of control
PTP Activity (% of control) PTPβ (PTPβ; agent 1 mM): 6 % of control
PTP Activity (% of control) LAR (LAR; agent 0.1 mM): 59 % of control
PTP Activity (% of control) LAR (LAR; agent 1 mM): 25 % of control

PTP Activity (% of control) S31D [1, 5]: 68 % of control
PTP Activity (% of control) S31D [1, 3]: 13 % of control
PTP Activity (% of control) S31D [1, 4]: 9 % of control
Compound: [Cl-].[Cl-].[Zn+2] [ZnCl2]
PTP Activity (% of control) PTPβ (PTPβ; agent 0.1 mM): 18 % of control
PTP Activity (% of control) PTPβ (PTPβ; agent 1 mM): 3 % of control
PTP Activity (% of control) PTPβ (PTPβ; agent 10 mM): 0 % of control
PTP Activity (% of control) LAR (LAR; agent 0.1 mM): 90 % of control
PTP Activity (% of control) LAR (LAR; agent 1 mM): 120 % of control
PTP Activity (% of control) LAR (LAR; agent 10 mM): 6 % of control

PTP Activity (% of control) S31D [1, 6]: 84 % of control
PTP Activity (% of control) S31D [1, 7]: 85 % of control
PTP Activity (% of control) S31D [1, 8]: 77 % of control
Compound: poly(Glu/Tyr) 4:1 [Poly (Glu/Tyr)]
PTP Activity (% of control) PTPβ (PTPβ; agent 1 μg/ml): 97 % of control
PTP Activity (% of control) PTPβ (PTPβ; agent 10 μg/ml): 85 % of control
PTP Activity (% of control) PTPβ (PTPβ; agent 100 μg/ml): 61 % of control
PTP Activity (% of control) LAR (LAR; agent 1 μg/ml): 103 % of control
PTP Activity (% of control) LAR (LAR; agent 10 μg/ml): 97 % of control
PTP Activity (% of control) LAR (LAR; agent 100 μg/ml): 96 % of control
